Assay results reported in the supplement of paper PMC11699113.

System: ED cells (E. derm NBM-6, ATCC CCL-57)
Assay: cell viability (ATP, CellTiter-Glo) relative to untreated control (fraction of control); higher = less cytotoxic

Cc1nnc(C(=O)NC(C)(C)c2nc(C(=O)NCc3ccc(F)cc3)c(O)c(=O)n2C)o1 [raltegravir]
cell viability
Conditions | 0.5 µM | 2 µM | 5 µM | 10 µM | 25 µM | 50 µM | 80 µM | 100 µM | 200 µM | 300 µM
incubation time: 1h | 1.07 | 1.07 | 1.07 | 1.08 | 1.07 | 1.06 | 1.05 | 1.07 | 1.06 | 1.06
incubation time: 24h | 1.02 | 1.02 | 1.02 | 1.03 | 1.02 | 1.01 | 0.983 | 0.999 | 0.982 | 0.963
incubation time: 72h | 1.03 | 1.05 | 1.04 | 1.04 | 1.04 | 1.05 | 1.01 | 1.02 | 0.992 | 0.963
incubation time: 144h | 0.994 | 0.999 | 1.03 | 1.03 | 1.04 | 1.04 | 1.03 | 1.02 | 0.991 | 0.955

CC[C@H](C)[C@H](NC(=O)[C@H](CC(C)C)NC(=O)[C@H](CO)NC(=O)[C@H](Cc1cnc[nH]1)NC(=O)[C@@H](NC(=O)[C@H](CC(C)C)NC(=O)[C@H](CO)NC(=O)[C@@H](NC(=O)[C@H](Cc1ccc(O)cc1)NC(C)=O)[C@@H](C)O)[C@@H](C)CC)C(=O)N[C@@H](CCC(=O)O)C(=O)N[C@@H](CCC(=O)O)C(=O)N[C@@H](CO)C(=O)N[C@@H](CCC(N)=O)C(=O)N[C@@H](CC(N)=O)C(=O)N[C@@H](CCC(N)=O)C(=O)N[C@@H](CCC(N)=O)C(=O)N[C@@H](CCC(=O)O)C(=O)N[C@@H](CCCCN)C(=O)N[C@@H](CC(N)=O)C(=O)N[C@@H](CCC(=O)O)C(=O)N[C@@H](CCC(N)=O)C(=O)N[C@@H](CCC(=O)O)C(=O)N[C@@H](CC(C)C)C(=O)N[C@@H](CC(C)C)C(=O)N[C@@H](CCC(=O)O)C(=O)N[C@@H](CC(C)C)C(=O)N[C@@H](CC(=O)O)C(=O)N[C@@H](CCCCN)C(=O)N[C@@H](Cc1c[nH]c2ccccc12)C(=O)N[C@@H](C)C(=O)N[C@@H](CO)C(=O)N[C@@H](CC(C)C)C(=O)N[C@@H](Cc1c[nH]c2ccccc12)C(=O)N[C@@H](CC(N)=O)C(=O)N[C@@H](Cc1c[nH]c2ccccc12)C(=O)N[C@@H](Cc1ccccc1)C(N)=O [enfuvirtide]
cell viability
Conditions | 0.03 µM | 0.06 µM | 0.125 µM | 0.25 µM | 0.5 µM | 1 µM | 2 µM | 5 µM | 8 µM | 11 µM
incubation time: 1h | 1.05 | 1.06 | 1.06 | 1.07 | 1.05 | 1.05 | 1.05 | 1.05 | 1.06 | 1.06
incubation time: 24h | 1.06 | 1.07 | 1.06 | 1.07 | 1.06 | 1.06 | 1.06 | 1.07 | 1.05 | 1.04
incubation time: 72h | 1.05 | 1.06 | 1.06 | 1.08 | 1.06 | 1.06 | 1.07 | 1.06 | 1.05 | 1.06
incubation time: 144h | 1.02 | 1.03 | 1.03 | 1.04 | 1.03 | 1.03 | 1.04 | 1.04 | 1.06 | 1.04
